Experiments:
[1] = tested on: PC9; experiment: Cell proliferation inhibition (CellTiter-Glo) on cell line PC9; type: cell-based; settings: Homo sapiens, PC-9
Protocol: (§1) The cell lines NCI-H1975 and PC9 selected for the experiments were provided by Sino-American Guanke Biotechnology (Beijing) Co. and were validated prior to use in this study.
(§2) A 10× stock of the compound to be tested was prepared for use, with 9 concentrations in 4-fold gradient dilution, diluted from 10 μM.
(§3) The logarithmic growth phase cell suspension was inoculated into a 96-well culture plate with 90 μL volume per well (2000 cells/well). 10 μL of 10× Compound to be tested was added to the plate according to the plate spreading diagram, and then mixed well. The plate was incubated in a 5% CO2 incubator at 37° C. The proliferation inhibitory activity of the compound was determined by the CellTiter-Glo method. Cell proliferation inhibition rate (Inhibition Rate) data were plotted using GraphPad Prism 8.0 software for cell viability curves and IC50 values were calculated.

[2] = tested on: Lung cancer LU0387PDX model; experiment: Pharmacodynamic study on lung cancer LU0387PDX model; type: in vivo, mice; settings: LU0387 model, 30 mg/kg, P.O, QD * 13 days
From the text: Lung cancer LU0387PDX model is a commonly used xenograft tumor model from Crown Bioscience, the experimental situation of this model is described as follows: after euthanasia of tumor-bearing mice, the tumor blocks were dissected out in aseptic condition, the blocks were cleaned to remove blood stains and connective tissues and necrotic parts, and the tumors were cut into small pieces of 2*2*2 mm^3, and inoculated with an adapter needle in sterilized experimental mice subcutaneously on the right dorsal side. Tumor growth was regularly observed, and when the tumors grew to an average volume of 100~200 mm^3, mice were randomly grouped according to tumor size and body weight for drug administration. Before the start of drug administration, all animals were weighed and the tumor volume was measured with vernier calipers. Mice were randomly grouped according to tumor volume to ensure that tumor volumes were similar between groups. Three mice in each group were administered orally once daily, and the inoculation site was observed after administration. Tumor volume and mouse body weight were measured twice a week. The experimental design and results were shown in Table 9, wherein P.O referred to administered orally; QD: once a day; TGI (Tumor volume inhibition rate)=(1-Tumor weight of the treatment group/Tumor weight of the control group)*100%.

[3] = target: Ba/F3-HER2-A775-G776 ins YVMA (Homo sapiens, UniProt P04626, DUP772-775, cells depend on it); experiment: Cell proliferation inhibition (CellTiter-Glo), HER2 exon 20 insertion engineered cells; type: cell-based; settings: 72 h, CellTiter-Glo; read-out: IC50, Ba/F3-HER2-A775-G776ins YVMA
Protocol: (§4) The selected engineering cells Ba/F3-FL-EGFR-V769-D770 ins ASV, Ba/F3-FL-EGFR-D770-N771 ins SVD, Ba/F3-FL-EGFR-H773-V774 ins NPH, Ba/F3-FL-EGFR-A763-Y764 ins FQEA, Ba/F3-HER2-A775-G776 ins YVMA were provided by Hefei PreceDo Biomedical Technology Co., LTD and were validated prior to use in this study.
(§5) A 20× stock of the compound to be tested was prepared for use, with 9 concentrations in 3-fold gradient dilution, diluted from 1 μM.
(§6) The logarithmic growth phase cell suspension was inoculated into 96-well white cell culture plates with 95 μL volume per well (2000 cells/well). 5 μL of 20× Compound to be tested was added to the plate containing 95 μL of cell suspension according to the plate spreading diagram, and then mixed well. The plate was incubated in a 5% CO2 incubator at 37° C. for 72 h. The proliferation inhibition activity of the compounds was determined by the CellTiter-Glo method, and the fluorescence value per well, RLU, was obtained from the SpectraMax Paradigm reading. Inhibition Rate data were processed using the following formula: Inhibition Rate (Inh %)=100−(RLU compound−RLU blank)/(RLU control−RLU blank)*100%. The cell viability corresponding to different concentrations of compounds was calculated in EXCEL, and then GraphPad Prism software was used to plot the cell viability curve and calculate the IC50 value.

[4] = tested on: EGFR exon 20ins; settings: advanced non-small cell lung cancer; cited from earlier work
[5] = target: Ba/F3-FL-EGFR-V769-D770 ins ASV (Homo sapiens, UniProt P00533, DUP767-769, cells depend on it); experiment: Cell proliferation inhibition (CellTiter-Glo), EGFR exon 20 insertion engineered cells; type: cell-based; settings: 72 h, read-out: IC50, Ba/F3-FL-EGFR V769-D770ins ASV
Protocol: as §4, §5, §6

[6] = target: Ba/F3-FL-EGFR-H773-V774 ins NPH (Homo sapiens, UniProt P00533, DUP771-773, cells depend on it); experiment: as above; type: cell-based; settings: 72 h, read-out: IC50, Ba/F3-FL-EGFR H773-V774ins NPH
Protocol: as §4, §5, §6

[7] = target: Ba/F3-FL-EGFR-A763-Y764 ins FQEA (Homo sapiens, UniProt P00533, INS763FQEA, cells depend on it); experiment: as above; type: cell-based; settings: 72 h, read-out: IC50, Ba/F3-FL-EGFR A763-Y764ins FQEA
Protocol: as §4, §5, §6

[8] = target: Ba/F3-FL-EGFR-D770-N771 ins SVD (Homo sapiens, UniProt P00533, DUP768-770, cells depend on it); experiment: as above; type: cell-based; settings: 72 h, read-out: IC50, Ba/F3-FL-EGFR D770-N771ins SVD
Protocol: as §4, §5, §6

[9] = tested on: NCI-H1975; experiment: Cell proliferation inhibition (CellTiter-Glo) on cell line NCI-H1975; type: cell-based; settings: Homo sapiens
Protocol: as §1, §2, §3

[10] = tested on: exon 20 insertion mutations in EGFR and HER2; settings: reported clinical trial results; cited from earlier work

Ba/F3-FL-EGFR-H773-V774 ins NPH, sequence (P00533 with tags, fused parts or gaps DUP771-773): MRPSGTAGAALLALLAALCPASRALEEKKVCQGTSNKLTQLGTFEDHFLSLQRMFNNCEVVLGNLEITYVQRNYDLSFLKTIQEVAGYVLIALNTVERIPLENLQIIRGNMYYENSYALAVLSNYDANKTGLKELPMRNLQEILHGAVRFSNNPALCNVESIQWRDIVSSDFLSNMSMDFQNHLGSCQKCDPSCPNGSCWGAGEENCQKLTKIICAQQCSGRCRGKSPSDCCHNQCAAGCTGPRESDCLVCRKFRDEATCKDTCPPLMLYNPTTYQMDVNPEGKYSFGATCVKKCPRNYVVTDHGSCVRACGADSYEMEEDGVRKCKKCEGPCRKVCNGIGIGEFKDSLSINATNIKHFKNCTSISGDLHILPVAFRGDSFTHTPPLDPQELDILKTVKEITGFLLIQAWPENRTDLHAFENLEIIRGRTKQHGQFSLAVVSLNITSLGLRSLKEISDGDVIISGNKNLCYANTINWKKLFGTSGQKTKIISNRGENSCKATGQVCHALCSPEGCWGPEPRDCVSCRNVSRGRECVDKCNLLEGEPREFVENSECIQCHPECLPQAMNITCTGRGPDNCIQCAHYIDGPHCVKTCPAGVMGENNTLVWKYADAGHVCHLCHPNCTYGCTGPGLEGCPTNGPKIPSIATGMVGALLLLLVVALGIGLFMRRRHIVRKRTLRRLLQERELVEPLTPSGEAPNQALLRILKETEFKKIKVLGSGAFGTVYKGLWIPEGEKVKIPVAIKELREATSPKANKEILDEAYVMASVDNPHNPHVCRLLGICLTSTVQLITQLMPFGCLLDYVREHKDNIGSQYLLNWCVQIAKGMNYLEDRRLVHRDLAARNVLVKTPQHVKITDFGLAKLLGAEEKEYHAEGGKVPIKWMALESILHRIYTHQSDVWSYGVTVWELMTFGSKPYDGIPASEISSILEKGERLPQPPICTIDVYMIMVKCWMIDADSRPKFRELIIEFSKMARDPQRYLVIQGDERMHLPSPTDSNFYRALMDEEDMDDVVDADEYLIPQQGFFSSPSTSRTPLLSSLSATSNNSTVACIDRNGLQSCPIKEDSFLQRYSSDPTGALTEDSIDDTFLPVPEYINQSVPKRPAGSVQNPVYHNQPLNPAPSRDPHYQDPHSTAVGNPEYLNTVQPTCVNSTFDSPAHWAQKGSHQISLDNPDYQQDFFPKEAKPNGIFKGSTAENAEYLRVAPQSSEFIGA
Ba/F3-FL-EGFR-A763-Y764 ins FQEA, sequence (P00533 with tags, fused parts or gaps INS763FQEA): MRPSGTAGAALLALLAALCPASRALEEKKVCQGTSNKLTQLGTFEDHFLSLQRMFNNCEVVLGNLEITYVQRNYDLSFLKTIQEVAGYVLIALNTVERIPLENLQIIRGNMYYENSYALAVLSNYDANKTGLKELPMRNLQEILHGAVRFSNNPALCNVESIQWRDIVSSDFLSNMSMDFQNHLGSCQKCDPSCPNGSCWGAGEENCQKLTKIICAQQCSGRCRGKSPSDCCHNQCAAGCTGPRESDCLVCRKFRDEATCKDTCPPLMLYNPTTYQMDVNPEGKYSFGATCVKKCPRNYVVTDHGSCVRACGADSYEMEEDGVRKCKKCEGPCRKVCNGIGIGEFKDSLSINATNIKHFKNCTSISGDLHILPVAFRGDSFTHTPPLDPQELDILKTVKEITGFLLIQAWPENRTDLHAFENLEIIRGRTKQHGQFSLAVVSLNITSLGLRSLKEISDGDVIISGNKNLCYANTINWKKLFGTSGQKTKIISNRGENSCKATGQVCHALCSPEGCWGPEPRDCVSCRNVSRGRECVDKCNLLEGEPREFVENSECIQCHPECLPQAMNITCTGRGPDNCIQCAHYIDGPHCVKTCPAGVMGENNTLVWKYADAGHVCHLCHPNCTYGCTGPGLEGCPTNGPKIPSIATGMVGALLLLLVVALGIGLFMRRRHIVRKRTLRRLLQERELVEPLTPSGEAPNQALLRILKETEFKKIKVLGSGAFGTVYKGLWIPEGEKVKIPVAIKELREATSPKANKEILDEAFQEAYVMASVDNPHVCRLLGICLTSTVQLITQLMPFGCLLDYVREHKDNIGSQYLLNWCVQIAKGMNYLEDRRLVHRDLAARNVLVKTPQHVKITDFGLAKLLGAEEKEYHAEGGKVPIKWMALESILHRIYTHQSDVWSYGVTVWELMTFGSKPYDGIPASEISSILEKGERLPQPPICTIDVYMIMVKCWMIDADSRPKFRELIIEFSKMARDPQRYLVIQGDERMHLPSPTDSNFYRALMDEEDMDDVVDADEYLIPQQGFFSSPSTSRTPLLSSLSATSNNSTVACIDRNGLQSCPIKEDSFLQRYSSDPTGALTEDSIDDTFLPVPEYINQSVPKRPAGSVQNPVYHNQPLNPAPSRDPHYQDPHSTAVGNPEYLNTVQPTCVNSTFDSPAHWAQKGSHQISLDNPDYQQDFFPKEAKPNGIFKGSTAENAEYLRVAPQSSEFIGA
Ba/F3-FL-EGFR-D770-N771 ins SVD, sequence (P00533 with tags, fused parts or gaps DUP768-770): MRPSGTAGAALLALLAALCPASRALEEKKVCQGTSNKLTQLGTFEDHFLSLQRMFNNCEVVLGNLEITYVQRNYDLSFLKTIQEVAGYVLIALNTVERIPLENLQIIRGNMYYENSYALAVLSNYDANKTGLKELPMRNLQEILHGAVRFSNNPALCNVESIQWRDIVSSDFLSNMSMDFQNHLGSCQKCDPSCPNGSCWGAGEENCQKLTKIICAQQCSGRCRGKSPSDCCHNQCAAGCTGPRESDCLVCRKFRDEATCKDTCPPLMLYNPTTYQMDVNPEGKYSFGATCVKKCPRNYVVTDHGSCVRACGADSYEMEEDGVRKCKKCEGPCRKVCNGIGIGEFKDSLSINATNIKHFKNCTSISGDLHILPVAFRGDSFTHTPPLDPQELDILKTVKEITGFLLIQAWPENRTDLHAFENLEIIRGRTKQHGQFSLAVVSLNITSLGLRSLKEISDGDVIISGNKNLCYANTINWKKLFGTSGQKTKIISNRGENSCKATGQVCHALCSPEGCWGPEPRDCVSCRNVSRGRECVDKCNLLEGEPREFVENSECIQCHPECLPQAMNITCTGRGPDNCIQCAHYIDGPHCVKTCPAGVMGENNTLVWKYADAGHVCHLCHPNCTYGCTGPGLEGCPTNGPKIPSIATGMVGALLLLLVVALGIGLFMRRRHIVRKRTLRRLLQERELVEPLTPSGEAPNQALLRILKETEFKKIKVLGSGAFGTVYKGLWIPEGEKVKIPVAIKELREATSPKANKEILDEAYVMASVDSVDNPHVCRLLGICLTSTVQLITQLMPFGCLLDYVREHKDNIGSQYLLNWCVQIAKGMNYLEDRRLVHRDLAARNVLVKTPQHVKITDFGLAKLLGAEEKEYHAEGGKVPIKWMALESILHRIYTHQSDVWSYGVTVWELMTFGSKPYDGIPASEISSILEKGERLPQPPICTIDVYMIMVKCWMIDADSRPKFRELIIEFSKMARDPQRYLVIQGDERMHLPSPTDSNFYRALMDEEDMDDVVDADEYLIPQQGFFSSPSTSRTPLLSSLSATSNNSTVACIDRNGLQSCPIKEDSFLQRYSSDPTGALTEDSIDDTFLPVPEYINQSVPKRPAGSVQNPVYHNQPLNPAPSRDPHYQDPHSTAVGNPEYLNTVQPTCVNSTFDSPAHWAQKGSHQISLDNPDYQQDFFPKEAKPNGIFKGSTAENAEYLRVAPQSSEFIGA
Ba/F3-HER2-A775-G776 ins YVMA, sequence (P04626 with tags, fused parts or gaps DUP772-775): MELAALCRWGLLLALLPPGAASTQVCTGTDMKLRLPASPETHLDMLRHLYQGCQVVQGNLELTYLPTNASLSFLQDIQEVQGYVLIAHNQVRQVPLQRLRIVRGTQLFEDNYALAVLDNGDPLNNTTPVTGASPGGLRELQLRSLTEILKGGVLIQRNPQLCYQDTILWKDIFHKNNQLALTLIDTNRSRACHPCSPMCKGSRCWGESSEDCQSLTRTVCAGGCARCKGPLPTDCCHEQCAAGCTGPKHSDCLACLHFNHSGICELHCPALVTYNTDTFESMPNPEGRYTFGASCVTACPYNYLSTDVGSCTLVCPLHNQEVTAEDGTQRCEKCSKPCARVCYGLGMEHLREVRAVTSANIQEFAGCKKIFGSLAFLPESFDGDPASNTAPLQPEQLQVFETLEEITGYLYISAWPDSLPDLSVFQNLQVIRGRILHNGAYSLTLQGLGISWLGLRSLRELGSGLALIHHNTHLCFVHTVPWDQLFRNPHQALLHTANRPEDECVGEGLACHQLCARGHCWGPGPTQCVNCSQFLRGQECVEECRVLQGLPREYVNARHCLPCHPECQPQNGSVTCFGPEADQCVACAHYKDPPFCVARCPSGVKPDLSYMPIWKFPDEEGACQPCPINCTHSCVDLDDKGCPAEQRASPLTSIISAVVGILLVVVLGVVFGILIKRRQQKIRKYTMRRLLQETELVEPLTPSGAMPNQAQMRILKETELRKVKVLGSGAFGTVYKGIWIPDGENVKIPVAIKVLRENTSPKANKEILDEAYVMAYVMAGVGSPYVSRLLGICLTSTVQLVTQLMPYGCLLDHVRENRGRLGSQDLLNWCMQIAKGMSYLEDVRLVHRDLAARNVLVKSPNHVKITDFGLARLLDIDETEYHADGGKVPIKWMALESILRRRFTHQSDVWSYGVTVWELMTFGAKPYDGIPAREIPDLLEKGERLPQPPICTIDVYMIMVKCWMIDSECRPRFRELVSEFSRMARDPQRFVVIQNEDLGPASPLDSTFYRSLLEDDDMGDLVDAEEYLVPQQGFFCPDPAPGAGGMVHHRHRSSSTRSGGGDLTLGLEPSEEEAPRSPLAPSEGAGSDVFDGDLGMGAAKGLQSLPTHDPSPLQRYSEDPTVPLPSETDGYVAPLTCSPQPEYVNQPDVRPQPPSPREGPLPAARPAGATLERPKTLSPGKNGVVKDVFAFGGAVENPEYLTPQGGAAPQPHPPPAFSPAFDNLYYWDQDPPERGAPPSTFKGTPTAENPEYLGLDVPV

| Structure (SMILES) | IC50 [1] [nM] | TGI (%) [2] [%] | GI50 [3] [nM] | objective remission rate [4] [%] | GI50 [5] [nM] | GI50 [6] [nM] | GI50 [7] [nM] | GI50 [8] [nM] | IC50 [9] [nM] | objective remission rate [10] [%] |
| --- | --- | --- | --- | --- | --- | --- | --- | --- | --- | --- |
| C=CC(=O)Nc1cc(Nc2nccc(Nc3cc(Cl)c(F)cc3C(C)(C)O)n2)c(OC)cc1N1CC[C@@H](N(C)C)C1 [DZD9008, reference compound] | 30 to 100 | 32.55 | 30 to 100 | 40 | ≤ 30 | 30 to 100 | ≤ 30 | 30 to 100 | ≤ 30 |  |
| C=CC(=O)Nc1cc(Nc2ncc(C(=O)OC(C)C)c(-c3cn(C)c4ccccc34)n2)c(OC)cc1N(C)CCN(C)C [TAK-788, reference compound] | ≤ 30 | 68.03 | ≤ 30 |  | ≤ 30 | ≤ 30 | ≤ 30 | ≤ 30 | ≤ 30 | 43 |

From US20260250270A1, “Compound Used as Kinase Inhibitor and Use Thereof” (TYK MEDICINES, INC., priority 2022, published 2026)
